Measurements as given in patent publication US5747051A, “Skin care compositions containing an amide of a hydroxy fatty acid and a retinoid” (Elizabeth Arden Co., Division of Conopco, Inc., priority 1996, dated 1998).

Assays:
[1] = system: transglutaminase 1 (TG1) in human keratinocytes; test: Transglutaminase 1 (TG1) ELISA assay of keratinocyte differentiation, normalised to DNA, Example 2; type: cell-based; conditions: for inhibiting keratinocyte TG1 level when used alone, in words: 2.5×10^-7 M retinol or 10^-6 M lactamide-DEA alone, compared with retinoic acid 2.5×10^-7 M
Method: Human keratinocytes, isolated from neonatal foreskin by trypsin treatment were grown in Dulbecco Modification Eagle (DME) Hams F12 (1:1) medium/10% fetal calf serum in the presence of irradiated 3T3 mouse fibroblasts for establishing dividing keratinocyte colonies. Cells were grown under the above condition until their second passage and kept frozen for future use. Frozen second passage keratinocytes were thawed and plated into the above medium and grown for five days before they were switched to a serum-free MCDB 153-based medium keratinocyte growth medium (KGM) from Clonetics Corporation, San Diego, Calif. containing 0.15 mM Ca, or keratinocyte serum-free media (KSFM) from GIBCO containing 0.09 mM Ca). On day 7, when the cells were 80-90% confluent, they were trypsinized and plated in the serum-free medium for the various experiments.
(§1) During the process of terminal differentiation in the epidermis, a 15 nm thick layer of protein, known as the cornified envelope (CE) is formed on the inner surface of the cell periphery. The CE is composed of numerous distinct proteins which have been cross-linked together by the formation of N ^ε -(γ-glutamyl) lysine isodipeptide bonds catalyzed by the action of at least two different transglutaminases (TGases) expressed in the epidermis. TGase I is expressed in abundance in the differentiated layers of the epidermis, especially the granular layer, but is absent in the undifferentiated basal epidermis. Thus TGase I is a useful marker of epidermal keratinocyte differentiation with high TGase I levels indicating a more differentiated state. An ELISA based TGase I assay, using a TGase I antibody, was used to assess the state of differentiation of the cultured keratinocytes in the examples that follow.
Keratinocytes (cultured as described above) were plated in 96 well plates at a density of 3,000 cells per well in 200 μl of cell culture media. After incubation for four days, the media was changed to media containing test compounds (six replicates per test). The cells were cultured for a further 72 hours after which time the media was aspirated and the plates stored at -70° C. After the plates were removed from the freezer, the cells were further freezed fractured by freezing and thawing and then washed 3× with PBS. The cells were incubated for one hour at room temperature (R/T) with TBS/5% BSA buffer. Cells were then incubated with 100 μl of monoclonal anti-human transglutaminase (IgG) mouse antibody (primary antibody) obtained from Biomedical Technologies Inc. diluted 1:2000 in TBS/1% BSA buffer for two hours at 37° C., and then rinsed six times with wash buffer (TBS/1% BSA/0.05% Tween-20). Cells were next incubated with 100 μl of Fab fragment, peroxidase conjugated anti-mouse IgG antibody (secondary antibody) from Amersham diluted 1:4,000 in wash buffer for two hours at 37° C. and then rinsed three times with wash buffer and three times with PBS. Cells were incubated with substrate solution (4 mg o-phenylene diamine and 3.3 μl 30% H2 O2 in 1O ml 0.1M citrate buffer, pH 5.0) for five minutes at R/T and in darkness (under aluminum foil). The reaction was stopped by the addition of 50 μl 4N H2SO4. The absorbance of samples was read at 492 nm in the plate reader. Out of the six replicates, four were treated with both antibodies, two were treated only with the secondary antibody (i.e., to determine the background binding of the enzyme conjugated antibody). Transglutaminase I levels were determined by subtracted background from the readings from each treatment and determining the mean s.d. for the replicates exposed to both antibodies.
The level of TGase-1 detected after treatment of the cells could be influenced by cell number, i.e., the greater the number of cells the greater the level of TGase-1 detected. The level of TGase-1 was normalized to DNA content of the cells in the same well thus eliminating variation due to differences in cell number. […]

[2] = system: Transglutaminase (TGase I) in human keratinocytes; test: Transglutaminase (TGase I ELISA) assay of keratinocyte differentiation, normalized to DNA, Example 1; type: cell-based; conditions: 2.5×10^-7 M, 2.5×10^-8 M and 2.5×10^-9 M
Method: Human keratinocytes, isolated from neonatal foreskin by trypsin treatment were grown in Dulbecco Modification Eagle (DME) Hams F12 (1:1) medium/10% fetal calf serum in the presence of irradiated 3T3 mouse fibroblasts for establishing dividing keratinocyte colonies. Cells were grown under the above condition until their second passage and kept frozen for future use. […] On day 7, when the cells were 80-90% confluent, they were trypsinized and plated in the serum-free medium for the various experiments.
as §1, with “Thus TGase I is a useful marker of epidermal keratinocyte differentiation with high TGase I levels indicating a more differentiated state. An ELISA based TGase I assay, using a TGase I antibody, was used to assess the state of differentiation of the cultured keratinocytes in the examples that follow.” left out
Keratinocytes (cultured as described above) were plated in 96 well plates at a density of 3,000 cells per well in 200 μl media. […] The absorbance of samples was read at 492 nm in the plate reader. […] TGase levels were determined by subtracting background from the readings from each treatment and determining mean ±s.d. for the replicates exposed to both Ab.
The level of TGase-1 was normalized to DNA content of the cells in the same well thus eliminating variation due to differences in cell number. DNA quantitation is a particularly useful indicator of cell number, including keratinocyte cell number, because each cell has to all intents and purposes an identical genome and therefore an identical quantity of DNA The total DNA content of a well of cells therefore is directly proportional to the cell number in that well. Quantitation of DNA was used to normalize the TGase data to cell number. […]

[3] = Homo sapiens, Keratinocyte, Table 2A, 2.5 × 10^-8 M, 72 hour treatment, n = 3, read-out: TGase/DNA (% control)
[4] = Homo sapiens, Keratinocyte, Table 2B, 2.5 × 10^-7 M, 72 hour treatment, n = 3, read-out: TGase/DNA (% control)
[5] = Table 2A, 2.5 × 10^-8 M, 72 hour treatment, n = 3, control 18.42 ± 3.88
[6] = Table 2B, 2.5 × 10^-7 M, 72 hour treatment, n = 3, control 64.11 ± 2.91

Row | inhibiting keratinocyte TG1 level when used alone, in words [1] | Compound | activity at 1 µM ([1]; Homo sapiens, Keratinocyte, Table 2B, 10^-6 M, 72 hour treatment, n = 3, read-out: TGase/DNA (% control)) | mean TGase/DNA × 10^5 ± s.d ([1]; Table 2B, 10^-6 M, 72 hour treatment, n = 3, control 64.11 ± 2.91) | decrease in transglutaminase level, dose dependence [2] | effect on keratinocyte differentiation, in words (summary of Examples 1 and 2) [1] | activity at 0.025 µM [1, 3] | activity at 0.25 µM [1, 4] | mean TGase/DNA × 10^5 ± s.d [1, 5] | mean TGase/DNA × 10^5 ± s.d [1, 6] | inhibitory effect on keratinocyte TG1 level when used alone, in words ([1]; 10^-8 M, amide alone) | activity at 0.01 µM ([1]; Homo sapiens, Keratinocyte, Table 2A, 10^-8 M, 72 hour treatment, n = 3, read-out: TGase/DNA (% control)) | mean TGase/DNA × 10^5 ± s.d ([1]; Table 2A, 10^-8 M, 72 hour treatment, n = 3, control 18.42 ± 3.88) | effect on keratinocyte differentiation (transglutaminase level), in words ([2]; vs ethanol control and corresponding retinol treatments)
1 | less effective | CC(O)C(=O)NCCO (centres unmarked) [lactamide-MEA, lactamide monoethanolamide] | 86% | 55.22 ± 2.43 | – | – | – | – | – | – | – | – | – | –
2 | less effective | CC1=C(/C=C/C(C)=C/C=C/C(C)=C/CO)C(C)(C)CCC1 [Retinol, retinol] | – | – | dose dependent | completely ineffective at decreasing keratinocyte differentiation | 79% | 91% | 14.62 ± 2.99 | 58.47 ± 6.25 | – | – | – | –
3 | – | CCCCCCCCCCC(O)CC(N)=O (stereo not drawn) [C13-β-hydroxy-acid amide, C13 β-hydroxy acid amide] | – | – | – | – | – | – | – | – | no inhibitory effect | 101% | 18.53 ± 4.58 | –
4 | – | CC1=C(/C=C/C(C)=C/C=C/C(C)=C/C(=O)O)C(C)(C)CCC1 [Retinoic acid, retinoic acid] | – | – | dose dependent | in a dose dependent manner, decreased keratinocyte differentiation | 6% | 73% | 1.05 ± 1.05 | 46.71 ± 7.83 | – | – | – | decreased keratinocyte differentiation over both the ethanol control and did so to a significantly greater extent than each of the corresponding 2.5×10^-7 M, 2.5×10^-8 M and 2.5×10^-9 M retinol treatments
